In article PMC8658026, “The N-Acetylglucosamine Kinase from Yarrowia lipolytica Is a Moonlighting Protein” (International Journal of Molecular Sciences, 2021):

Key:
[1] = biological target: T1, YlNag5 (NAGA kinase) (Yarrowia lipolytica, UniProt Q6C584, F320S); assay: residual NAGA assay after incubation with extract; assay type: biochemical
T1 construct: gene YALI0_E20207g

[2] = biological target: T2, YlNag5 (NAGA kinase) (Yarrowia lipolytica, UniProt Q6C584, D214V); assay: residual NAGA assay after incubation with extract; assay type: biochemical
T2 construct: gene YALI0_E20207g
T2 sequence (Q6C584 entry or part of it D214V): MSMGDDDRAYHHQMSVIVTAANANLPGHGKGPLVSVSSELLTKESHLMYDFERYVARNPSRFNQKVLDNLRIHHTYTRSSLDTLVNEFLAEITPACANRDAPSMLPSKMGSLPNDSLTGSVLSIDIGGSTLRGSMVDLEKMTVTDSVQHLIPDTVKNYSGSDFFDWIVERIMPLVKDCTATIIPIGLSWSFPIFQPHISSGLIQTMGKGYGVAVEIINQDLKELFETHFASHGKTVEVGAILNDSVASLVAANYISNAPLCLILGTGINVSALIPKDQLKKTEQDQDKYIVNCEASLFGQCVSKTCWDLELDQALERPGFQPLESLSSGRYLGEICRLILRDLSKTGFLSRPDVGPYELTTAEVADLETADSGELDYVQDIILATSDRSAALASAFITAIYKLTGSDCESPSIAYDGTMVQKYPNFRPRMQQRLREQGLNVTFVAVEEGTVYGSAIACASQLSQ

T1 sequence (Q6C584 entry or part of it F320S): as the sequence (Q6C584 entry or part of it D214V) above, with V214D, F320S counted along it

Compound: CC(=O)N[C@H]1C(O)O[C@H](CO)[C@@H](O)[C@@H]1O (some centres unmarked) [NAGA]
- residual NAGA assay after incubation with extract [1]: strains expressing the F320S or D214V variants of YlNag5 exhibited low or moderate kinase activity
- residual NAGA assay after incubation with extract [2]: strains expressing the F320S or D214V variants of YlNag5 exhibited low or moderate kinase activity
